The values below come from the supplement of paper PMC10307832.

Assay in all cases: relative viability (nuclei count vs DMSO), 5 days (fraction); higher = more cells survive
Compound in assay [1]: CC1=C(C(=NN1)C)CC2=C(C3=C(S2)N(C(=O)N(C3=O)C)CC(C)C)C(=O)N4C[C@@H](CO4)O
In a few lines: (§1)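 A plate was accepted only when its control CV was below 25% and the cells had doubled at least once. Viability is defined from nuclear counts as treated wells divided by vehicle wells, with the median taken across plates. That median covers lung cancer cell lines grown in 1536-well plates, dosed by pinning at five √10-spaced library-drug concentrations, and counted in MetaXpress from 4× Hoechst images after 5 days.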

Compound in the next assay: Cc1ccccc1C(C(=O)NC1CCCCC1)N(C(=O)Cn1ccnc1C)c1cccc(F)c1 [IDH-C35]
In outline:
as §1

Compound in the assay “IDH-C35 + Navitoclax”: Cc1ccccc1C(C(=O)NC1CCCCC1)N(C(=O)Cn1ccnc1C)c1cccc(F)c1 [IDH-C35] + CC1(C)CCC(c2ccc(Cl)cc2)=C(CN2CCN(c3ccc(C(=O)NS(=O)(=O)c4ccc(N[C@H](CCN5CCOCC5)CSc5ccccc5)c(S(=O)(=O)C(F)(F)F)c4)cc3)CC2)C1 [Navitoclax] (partner 0.5 µM)
In outline:
(§2)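 Relative viability equals treated-well nuclei counts divided by vehicle-well nuclei counts. Counts came from 4× images of lung cancer cell lines grown in 1536-well plates for 5 days after pin-tool dosing on the day after seeding. Dosing used one drug alone or a fixed anchor-drug dose plus five library-drug doses (not always all listed) in √10 steps, and values are medians of duplicate plates.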

Compound in assay [2]: CC1=C(C(=NN1)C)CC2=C(C3=C(S2)N(C(=O)N(C3=O)C)CC(C)C)C(=O)N4C[C@@H](CO4)O + CC(=O)Nc1cccc(-n2c(=O)n(C3CC3)c(=O)c3c(Nc4ccc(I)cc4F)n(C)c(=O)c(C)c32)c1 [Trametinib] (partner 0.02 µM)
In outline: as §2

For the cell line LCLC-97TM1, the relative viability in assay [1] (0.0025 µM) stood at 1.05; in assay [1] (0.007906 µM), 1.13; in assay [1] (0.025 µM), 0.98; in assay [1] (0.07906 µM), 0.957; in assay [1] (0.25 µM) it was 1.02; with IDH-C35 (0.08 µM), 0.807. Also, the relative viability with IDH-C35 (0.253 µM) stood at 1.03; with IDH-C35 (0.8 µM), 0.936; in the assay with IDH-C35 (8 µM), 0.91; with IDH-C35 + Navitoclax (first compound 0.08 µM), 0.4; with IDH-C35 + Navitoclax (first compound 0.253 µM), 0.474; with IDH-C35 + Navitoclax (first compound 0.8 µM), 0.367. The relative viability stood at 0.35 in the assay with IDH-C35 + Navitoclax (first compound 8 µM); 0.178 in assay [2] (first compound 0.0025 µM); 0.184 in assay [2] (first compound 0.007906 µM); 0.249 in assay [2] (first compound 0.025 µM); 0.158 in assay [2] (first compound 0.07906 µM); 0.189 in assay [2] (first compound 0.25 µM).
Take EPLC-272H: the relative viability in assay [1] (0.0025 µM) stood at 1.02; in assay [1] (0.007906 µM), 0.906; in assay [1] (0.025 µM) it was 0.968; in assay [1] (0.07906 µM), 0.974; in assay [1] (0.25 µM) it was 1.01; with IDH-C35 (0.08 µM), 0.935. In addition, the relative viability in the assay with IDH-C35 (0.253 µM) was 1.04; with IDH-C35 (0.8 µM), 0.898; in the assay with IDH-C35 (2.53 µM), 0.76; in the assay with IDH-C35 (8 µM) it was 0.882; in the assay with IDH-C35 + Navitoclax (first compound 0.08 µM) it was 1.27; with IDH-C35 + Navitoclax (first compound 0.253 µM), 1.13. Moreover, the relative viability worked out at 1.13 with IDH-C35 + Navitoclax (first compound 0.8 µM); 1.07 in the assay with IDH-C35 + Navitoclax (first compound 8 µM); 0.317 in assay [2] (first compound 0.0025 µM); 0.236 in assay [2] (first compound 0.007906 µM); 0.31 in assay [2] (first compound 0.025 µM); 0.295 in assay [2] (first compound 0.07906 µM). The relative viability in assay [2] (first compound 0.25 µM) was 0.352.
Regarding NCI-H1915, the relative viability in assay [1] (0.0025 µM) came out at 1.04; in assay [1] (0.007906 µM), 1.03; in assay [1] (0.025 µM), 0.993; in assay [1] (0.07906 µM) it was 0.991; in assay [1] (0.25 µM), 1.03; with IDH-C35 (0.08 µM) it was 0.993. The relative viability in the assay with IDH-C35 (0.253 µM) was 0.975; in the assay with IDH-C35 (0.8 µM), 1.01; with IDH-C35 (2.53 µM) it was 0.952; with IDH-C35 (8 µM) it was 0.913; with IDH-C35 + Navitoclax (first compound 0.08 µM), 0.772; in the assay with IDH-C35 + Navitoclax (first compound 0.253 µM), 0.753. Besides, the relative viability turned out to be 0.759 with IDH-C35 + Navitoclax (first compound 0.8 µM); 0.729 in the assay with IDH-C35 + Navitoclax (first compound 2.53 µM); 0.767 with IDH-C35 + Navitoclax (first compound 8 µM); 0.295 in assay [2] (first compound 0.0025 µM); 0.307 in assay [2] (first compound 0.007906 µM); 0.288 in assay [2] (first compound 0.025 µM). Besides, the relative viability was found to be 0.302 in assay [2] (first compound 0.07906 µM) and 0.32 in assay [2] (first compound 0.25 µM).
Consider NCI-H2405, for which the relative viability in assay [1] (0.0025 µM) turned out to be 1.1; in assay [1] (0.007906 µM), 1.04; in assay [1] (0.025 µM), 0.653; in assay [1] (0.07906 µM), 0.921; in assay [1] (0.25 µM) it was 0.962; with IDH-C35 (0.08 µM) it was 1.05. Further, the relative viability was determined as 1 in the assay with IDH-C35 (0.253 µM); 0.971 in the assay with IDH-C35 (0.8 µM); 0.996 with IDH-C35 (2.53 µM); 1.02 in the assay with IDH-C35 (8 µM); 0.926 in the assay with IDH-C35 + Navitoclax (first compound 0.08 µM); 0.981 with IDH-C35 + Navitoclax (first compound 0.253 µM). Besides, the relative viability is 0.918 with IDH-C35 + Navitoclax (first compound 0.8 µM); 0.76 in the assay with IDH-C35 + Navitoclax (first compound 8 µM); 0.689 in assay [2] (first compound 0.0025 µM); 0.627 in assay [2] (first compound 0.007906 µM); 0.618 in assay [2] (first compound 0.025 µM); 0.673 in assay [2] (first compound 0.07906 µM). Further, in assay [2] (first compound 0.25 µM), the relative viability is 0.692.
Take NCI-H322M: the relative viability was 0.98 in assay [1] (0.0025 µM); 1.02 in assay [1] (0.007906 µM); 0.948 in assay [1] (0.025 µM); 1.02 in assay [1] (0.07906 µM); 0.919 in assay [1] (0.25 µM); 0.92 in the assay with IDH-C35 (0.08 µM). Also, the relative viability with IDH-C35 (0.253 µM) was determined as 0.973; with IDH-C35 (0.8 µM), 0.933; with IDH-C35 (2.53 µM) it was 0.963; with IDH-C35 (8 µM), 1; with IDH-C35 + Navitoclax (first compound 0.08 µM) it was 1.34; in the assay with IDH-C35 + Navitoclax (first compound 0.253 µM) it was 1.12. Moreover, the relative viability turned out to be 1.23 with IDH-C35 + Navitoclax (first compound 0.8 µM); 1.15 with IDH-C35 + Navitoclax (first compound 2.53 µM); 1.2 with IDH-C35 + Navitoclax (first compound 8 µM); 0.503 in assay [2] (first compound 0.0025 µM); 0.577 in assay [2] (first compound 0.007906 µM); 0.471 in assay [2] (first compound 0.025 µM). Also, the relative viability in assay [2] (first compound 0.07906 µM) was found to be 0.527; in assay [2] (first compound 0.25 µM) it was 0.433.
